This is an account of results in article PMC10747602, “Dose Response, Dosimetric, and Metabolic Evaluations of Replacement PFAS Perfluoro-(2,5,8-trimethyl-3,6,9-trioxadodecanoic) Acid (HFPO-TeA)” (Toxics, 2023).

Series [1] can be described thus: Liver-to-plasma partitioning (Kp). The format is in vivo, Sprague Dawley rats. To be noted: Sprague Dawley, rat, oral, 5 days. The procedure: Liver samples were analyzed using the same analytical assessment procedure as the plasma dosimetry samples. Matrix blanks were analyzed with each sample set. HFPO-TeA was not detected in the blanks above the limit of quantitation (LOQ) of 1.58 µM. Statistical analysis is described in Supplementary Text S3, normalization calculations are described in Supplementary Text S5 [47], and the liver-to-plasma partitioning calculation is outlined in Supplementary Text S7 [32, 50, 51]. […]
tube, and then further crashed with 200 µL ACN. This was repeated twice more to generate a final combined supernatant volume of 600 µL. Supernatants were stored at -20 °C prior to analysis.
Samples were quantitated against matrix-matched calibration curves containing a minimum of 5 points spanning the range 0.99 – 141 ng/mg liver (wet weight, ww). For the calibration standards, commercial rat liver (BioIVT) was spiked with HFPO-TeA and PFHxDA, homogenized, and extracted using the above procedure.
Support ing Text S7: Plasma-to-Liver Partitioning Calculations
Concentrations of HFPO-TeA in liver and plasma were used to calculate experimental Kp values for both sexes across all dose levels using Equation A [3-5].

On the set-up of series [2]: method as in PMID 35436088. The following applies: male mice, cited from earlier work.
The next series in a line: Liver HFPO-TeA dosimetry. Format: in vivo, Sprague Dawley rats. To be noted: for 5D Liver Conc.: 5 days of exposure, mean ± SD n=4; for concentration at 5 days: Sprague Dawley, rat, liver, oral, wet weight, individual rats, read-out: Liver Conc. Here is the method: Whole blood was collected from the retro-orbital plexus under isoflurane anesthesia 2 h following the first dose and by cardiac puncture 24 h after the last dosage. Blood was stored in anticoagulant potassium ethylenediaminetetraacetic acid (K3EDTA)-coated vacutainers, and then processed to isolate plasma via centrifugation. Animals were euthanized via carbon dioxide asphyxiation and subsequent exsanguination. Liver was collected, weighed, cubed, and divided into three aliquots. One aliquot of tissue was flash-frozen in liquid nitrogen and stored at −80 °C for analytical chemistry analyses. The remaining two aliquots were placed in RNALater and frozen for use in the companion transcriptomic study. Liver and plasma samples were received at the U.S. EPA Center for Computational Toxicology and Exposure, Advanced Analytical Chemistry Methods Branch in Research Triangle Park, North Carolina, USA, and stored at −80 °C prior to extraction.
Information on the chemicals and materials used in the liver plasma HFPO-TeA dosimetry work can be found in Supplementary Text S6 and Table S3. Liver sample preparation was modified from Conley et al.’s work and detailed in Supplementary Text S6 [49]. Briefly, samples were spiked with the internal standard PFHxDA then homogenized in 200 µL of ACN containing 0.1% formic acid. The sample was centrifuged, and the supernatant was transferred. This process was repeated twice more, then stored at −20 °C prior to analysis.
Liver samples were analyzed using the same analytical assessment procedure as the plasma dosimetry samples. Matrix blanks were analyzed with each sample set. HFPO-TeA was not detected in the blanks above the limit of quantitation (LOQ) of 1.58 µM. Statistical analysis is described in Supplementary Text S3, normalization calculations are described in Supplementary Text S5 [47], and the liver-to-plasma partitioning calculation is outlined in Supplementary Text S7 [32, 50, 51].
All in vivo results values are reported as mean ± one standard deviation (SD). Statistical evaluation of in vivo data was conducted using a two-way analysis of variance (ANOVA) and Dunnett’s Test, both at α = 0.05 significance level, on GraphPad Prism v9.5.1.
Support ing Text S4: Plasma Dosimetry Chemicals, Materials, and Analysis Sprague Dawley rodent plasma (pooled, mixed sex) collected with ethylenediaminetetraacetic acid (EDTA) and sterile filtered (0.2 µm) was obtained from BioIVT (Westbury, NY, USA) and stored at -80 °C until use as the control matrix for generating calibration curves and as the matrix blank during plasma sample analysis. The HFPO-TeA (98.97% pure) used for calibration curve preparation was obtained from Oakwood Products Inc. (West Columbia, South Carolina, USA). Unlabeled perfluorohexadecanoic acid (CASRN 67905-19-5 | DTXSID1070800 | PFHxDA; ≥ 98% pure) was obtained from Cambridge Isotope Laboratories (Tewksbury, MA, USA) to serve as the internal standard since a labeled HFPO-TeA standard was not commercially available. […]
Samples were quantitated against matrix-matched calibration curves containing a minimum of 5 points spanning the range 20 – 80,280 ng/mL plasma. Calibrants were prepared by spiking commercial rat plasma (BioIVT) with HFPO-TeA and PFHxDA and then extracted in the same manner as study samples.
Support ing Text S5: Normalization of Dosimetry Data Calculations
Percent dose of HFPO-TeA in plasma was calculated using the observed plasma concentrations and the average plasma volume for Sprague Dawley rats. The density of plasma was then used to convert from mL plasma to grams plasma for ease of comparison to the liver percent dose data. Average percent dose of HFPO-TeA in liver was calculated using the observed liver concentrations and liver weights. These calculations allow for a comparison of the potential saturation of available proteins in […]
Support ing Text S6: Liver Dosimetry Chemicals, Materials, and Analysis […]

Like-named read-outs stand apart in the source and are kept apart here.

As to `O=C(O)C(F)(OC(F)(F)C(F)(OC(F)(F)C(F)(OC(F)(F)C(F)(F)C(F)(F)F)C(F)(F)F)C(F)(F)F)C(F)(F)F` (centres unmarked) [HFPO-TeA, perfluoro-(2,5,8-trimethyl-3,6,9-trioxadodecanoic) acid], the Kp at 120 h in series [1] (female, 0.3 mg/kg/day, F, mean ± SD n=4, read-out: Liver Kp (liver-to-plasma ratio)) is 7.81 ± 4.68; in series [1] (female, 0.9 mg/kg/day, F, mean ± SD n=4, read-out: Liver Kp (liver-to-plasma ratio)), 4.04 ± 1.37; in series [1] (female, 2.3 mg/kg/day, F, mean ± SD n=4, read-out: Liver Kp (liver-to-plasma ratio)), 1.9 ± 1.47; in series [1] (female, 6.3 mg/kg/day, F, mean ± SD n=4, read-out: Liver Kp (liver-to-plasma ratio)), 1.65 ± 0.46; in series [1] (female, 17 mg/kg/day, F, mean ± SD n=4, read-out: Liver Kp (liver-to-plasma ratio)) it was 0.903 ± 0.145; in series [1] (male, 0.3 mg/kg/day, M, mean ± SD n=4, read-out: Liver Kp (liver-to-plasma ratio)), 7.28 ± 3.71. The Kp at 120 h came to 3.38 ± 1.24 in series [1] (male, 0.9 mg/kg/day, M, mean ± SD n=4, read-out: Liver Kp (liver-to-plasma ratio)); 1.54 ± 0.91 in series [1] (male, 2.3 mg/kg/day, M, mean ± SD n=4, read-out: Liver Kp (liver-to-plasma ratio)); 3.41 ± 0.6 in series [1] (male, 6.3 mg/kg/day, M, mean ± SD n=4, read-out: Liver Kp (liver-to-plasma ratio)); 1.32 ± 0.55 in series [1] (male, 17 mg/kg/day, M, mean ± SD n=4, likely influenced by high toxicity and stress, read-out: Liver Kp (liver-to-plasma ratio)). In addition, the “experimental Kp” value is listed as “approximately 20” in series [2] (0.02 mg/kg/day for 7 days), about 40 in series [2] (0.2 mg/kg/day for 7 days) and about 5 in series [2] (2 mg/kg/day for 7 days). The “5D Liver Conc.” value in “Liver HFPO-TeA dosimetry” (0.9 mg/kg/day, F) is listed as 14.0 ± 4.3 µM; in “Liver HFPO-TeA dosimetry” (2.3 mg/kg/day, F) it was 16.5 ± 12.6 µM; in the series “Liver HFPO-TeA dosimetry” (2.3 mg/kg/day, M) it was 10.3 ± 7.5 µM; in the series “Liver HFPO-TeA dosimetry” (6.3 mg/kg/day, F), 86.8 ± 31.7 µM; in “Liver HFPO-TeA dosimetry” (6.3 mg/kg/day, M) it was 82.7 ± 10.5 µM; in “Liver HFPO-TeA dosimetry” (17 mg/kg/day, F), 250 ± 39 µM. Further, the “5D Liver Conc.” value in “Liver HFPO-TeA dosimetry” (17 mg/kg/day, M) is recorded as 210 ± 85 µM. Also, the concentration at 5 days was 9240 ng/g in “Liver HFPO-TeA dosimetry” (female, 0.9 mg/kg/day, F); 174000 ng/g in the series “Liver HFPO-TeA dosimetry” (female, 17 mg/kg/day, F); 61600 ng/g in “Liver HFPO-TeA dosimetry” (male, 6.3 mg/kg/day, M).
